Assay results: patent US20050159444A1, “Bicyclic unsaturated tertiary amine compounds” (SANKYO COMPANY, LIMITED, priority 2002, published 2005)
pIC50: −log10 of the molar value.

How the values were obtained:
[1] = system: TNFα production; test: Inhibition of the production of TNFα in vivo (lipopolysaccharide-injected mice); details: Mus musculus, oral, 30 minutes before lipopolysaccharide injection, plasma TNFα 1 hour after LPS, Balb/c mice, average vs control group, read-out: Inhibition Rate (%) of TNFα Production (in vivo)
Protocol: Inhibition of the Production of TNFα In Vivo
This test was performed according to the method of Ochalaki et al. [S. J. Ochalaki, D. A. Hartman, M. T. Belfast, T. L. Walter, K. B. Glaser and R. P. Carlson; Inhibition of endotoxin-induced hypothermia and serum TNFα levels in CD-1 mice by various pharmacological agents: Agents Actions 39, C52-C54 (1998)].
The production of TNFα was induced in mice by intravenous injection of lipopolysaccharide (E. coli O26: B6 origin, Difco) which was prepared to a concentration of 0.045 mg/ml using physiological saline. The saline preparation of lipopolysaccharide was administered at the rate of 10 ml/1 kg of body weight into the caudal vein of Balb/c mice (males, age 5-7 weeks, body weight: approx. 22 g, Japan Charles River) which had been fasted overnight starting the day before the experiment. One hour after administration, the mice were laparotomized under ether anaesthesia and blood was collected from the abdominal vena cava. Blood collection was performed using a 1 ml volume disposable syringe equipped with a 23G needle which had been moistened with heparin on the inside wall. Following blood collection, the blood was immediately transferred to a 1.5 ml volume Eppendorf tube and centrifuged at 4° C. and 14,000 rpm to separate the plasma. This plasma was then stored at −20° C. until measurement of TNFα.
The measurement of the amount of TNFα was performed with a enzyme immunoassay (ELISA) kit (Mouse TNFα ELISA KIT, Genzyme).
To determine the inhibitory activity of the test compounds, each test compound was suspended in 0.5% tragacanth solution ad then administered orally to the mice at a rate of 10 ml/1 kg of body weight 30 minutes before injection of the lipopolysaccharide, and the average inhibition rates were calculated versus a control group.

[2] = system: TNFα production; test: Inhibition of the production of TNFα in vitro in human whole blood; format: cell-based; details: lipopolysaccharide 10 μg/ml, 6 hours at 37° C., ELISA of plasma, read-out: Inhibitory Effect on TNFα Production (in vitro) IC50
Protocol: Inhibition of the Production of the Cytokines IL-1β and TNFα In Vitro in Human Whole Blood
This test was performed according to the method of Hartman, et al. [D. A. Hartman, S. J. Ochalski and R. P. Carlson; The effects of anti-inflammatory and antiallergic drugs on cytokine release after stimulation of human whole blood by lipopolysaccharide and zymosan A: Inflamm. Res., 44, 269 (1995)].
Peripheral blood samples were collected in the presence of heparin from healthy adult volunteers. 1000 μl of whole blood was added to an Eppendorf tube to which 2 μl of a dimethyl sulfoxide solution of the test compound had been previously added, after which 10 μl of lipopolysaccharide (E. coli O26: B6 origin, Difco) was added as a stimulant (final concentration of said lipopolysaccharide: 10 μg/ml). This was thoroughly mixed and then incubated for 6 hours at 37° C. in the presence of 5% CO2. At the end of the incubation, the mixture was cooled to 4° C. to stop the reaction, followed immediately by centrifuging for 5 minutes at 14,000 rpm to separate and collect the supernatant plasma. The IL-1β and TNFα produced and released into the plasma were measured using a commercially available enzyme immunoassay (ELISA) kits [Cayman and Genzyme]. The inhibitory effect [IC50 (μM)] on the production of cytokines was determined by the method of least squares from the amounts of the cytokines produced in the presence and absence of the test compound.

[3] = system: adjuvant-induced arthritis; test: Activity in preventing the development of adjuvant-induced arthritis in vivo; details: dose: 10 mg/kg, oral once a day from day 0 to day 20; measured on day 21; Lewis rat
Protocol: Activity in Preventing the Development of Adjuvant-Induced Arthritis In Vivo The test was performed according to the method described by Winder et al. (Arthritis Rheum., 12, 472-482, 1969). Heat-killed dried Mycobacterium butyricum (Difco Laboratories, Lot 679123) was ground on an agate mortar, and was then suspended in dry-sterilised liquid paraffin (first grade, Wako Pure Chemical Industries, Ltd.) to make a 2 mg/ml suspension. The resulting suspension was then sonicated and used as an adjuvant. Arthritis was induced by the intradermal injection of the adjuvant (100 μg of heat killed dried bacterium/0.05 ml of paraffin/paw) into the heel of the right hind paw of a Lewis rat (male, age 9 weeks, 190 g, Japan Charles River). The rats were assigned to groups of 5 animals each. […] The volumes of the right hind paw (adjuvant-injected paw) and left hind paw (non-injected paw) were measured on days 3, 5, 7, 10, 13, 15, 18 and 21 using a Plethysmometer™ (Ugo Basile), the hind paws being soaked from the toe to the hairline in the bath of the Plethysmometer™. The volumes of the swollen feet (adjuvant-injected right hind foot volume—non-injected left hind foot volume) were calculated. The percent inhibition of swelling of the injected foot of the treated animals as compared to that of the control animals on day 21 was calculated as follows. [formula]

SMILES | inhibition in vivo at 5 mg/kg [1] [%] | pIC50 [2] | Inhibition rate (%) of swelling of adjuvant-injected foot [3] [%]
C1=C(c2c[nH]c(-c3ccccc3)c2-c2ccncc2)CCN2C[C@H](c3ccccc3)C[C@@H]12 [Example 25, 2-Phenyl-4-[(2S,8aS)-2-phenyl-1,2,3,5,6,8a-hexahydroindolizin-7-yl]-3-(pyridin-4-yl)-1H-pyrrole] | 92 | – | –
Cc1ccc([C@@H]2C[C@H]3C=C(c4c[nH]c(-c5ccc(F)c(F)c5)c4-c4ccncc4)CCN3C2)cc1 [Example 12, 2-(3,4-Difluorophenyl)-4-[(2S,8aS)-2-(4-methylphenyl)-1,2,3,5,6,8a-hexahydroindolizin-7-yl]-3-(pyridin-4-yl)-1H-pyrrole] | – | 8.26 | –
Fc1ccc(-c2[nH]cc(C3=C[C@@H]4C[C@@H](c5ccccc5)CN4CC3)c2-c2ccncc2)cc1F [Example 8, 2-(3,4-Difluorophenyl)-4-[(2S,8aS)-2-phenyl-1,2,3,5,6,8a-hexahydroindolizin-7-yl]-3-(pyridin-4-yl)-1H-pyrrole] | 91 | – | –
Clc1cccc(-c2[nH]cc(C3=C[C@@H]4C[C@@H](c5ccccc5)CN4CC3)c2-c2ccncc2)c1 [Example 10, 2-(3-Chlorophenyl)-4-[(2S,8aS)-2-phenyl-1,2,3,5,6,8a-hexahydroindolizin-7-yl]-3-(pyridin-4-yl)-1H-pyrrole] | 91 | 8.14 | –
Fc1ccc(-c2[nH]cc(C3=C[C@@H]4C[C@@H](c5ccccc5)CN4CC3)c2-c2ccncc2)cc1Cl [Example 46, 2-(3-Chloro-4-fluorophenyl)-4-[(2S,8aS)-2-phenyl-1,2,3,5,6,8a-hexahydroindolizin-7-yl]-3-(pyridin-4-yl)-1H-pyrrole] | 93 | 8.68 | –
COc1cccc([C@@H]2C[C@H]3C=C(c4c[nH]c(-c5ccc(F)c(F)c5)c4-c4ccncc4)CCN3C2)c1 [Example 31, 2-(3,4-Difluorophenyl)-4-[(2S,8aS)-2-(3-methoxyphenyl)-1,2,3,5,6,8a-hexahydroindolizin-7-yl]-3-(pyridin-4-yl)-1H-pyrrole] | 92 | – | –
CCC[C@H]1C[C@H]2C=C(c3n[nH]c(-c4ccc(F)cc4)c3-c3ccncc3)CCN2C1 [Example 6, 5-(4-Fluorophenyl)-3-[(2S,8aS)-2-propyl-1,2,3,5,6,8a-hexahydroindolizin-7-yl]-4-(pyridin-4-yl)-pyrazole] | – | 8.20 | –
Fc1ccc(-c2[nH]cc(C3=C[C@@H]4C[C@H](c5ccc(F)cc5)CN4CC3)c2-c2ccncc2)cc1 [Example 3, 2-(4-Fluorophenyl)-4-[(2R,8aS)-2-(4-fluorophenyl)-1,2,3,5,6,8a-hexahydroindolizin-7-yl]-3-(pyridin-4-yl)-1H-pyrrole] | – | 8.29 | –
COc1ccc([C@@H]2C[C@H]3C=C(c4c[nH]c(-c5cccc(Cl)c5)c4-c4ccncc4)CCN3C2)cc1 [Example 23, 2-(3-Chlorophenyl)-4-[(2S,8aS)-2-(4-methoxyphenyl)-1,2,3,5,6,8a-hexahydroindolizin-7-yl]-3-(pyridin-4-yl)-1H-pyrrole] | 90 | – | –
Cc1ccc([C@H]2C[C@H]3C=C(c4c[nH]c(-c5ccc(F)cc5)c4-c4ccncc4)CCN3C2)cc1 [Example 4, 2-(4-Fluorophenyl)-4-[(2R,8aS)-2-(4-methylphenyl)-1,2,3,5,6,8a-hexahydroindolizin-7-yl]-3-(pyridin-4-yl)-1H-pyrrole] | – | 8.11 | –
Fc1ccc(-c2[nH]cc(C3=C[C@@H]4C[C@@H](c5ccccc5)CN4CC3)c2-c2ccncc2)cc1 [Example 2, 2-(4-Fluorophenyl)-4-[(2S,8aS)-2-phenyl-1,2,3,5,6,8a-hexahydroindolizin-7-yl]-3-(pyridin-4-yl)-1H-pyrrole] | – | – | 84
COc1ccc([C@@H]2C[C@H]3C=C(c4c[nH]c(-c5ccc(F)cc5)c4-c4ccncc4)CCN3C2)cc1 [Example 16, 2-(4-Fluorophenyl)-4-[(2S,8aS)-2-(4-methoxyphenyl)-1,2,3,5,6,8a-hexahydroindolizin-7-yl]-3-(pyridin-4-yl)-1H-pyrrole] | 90 | 8.27 | –
CCOc1ccc([C@@H]2C[C@H]3C=C(c4c[nH]c(-c5ccc(F)cc5)c4-c4ccncc4)CCN3C2)cc1 [Example 30, 4-[(2S,8aS)-2-(4-Ethoxyphenyl)-1,2,3,5,6,8a-hexahydroindolizin-7-yl]-2-(4-fluorophenyl)-3-(pyridin-4-yl)-1H-pyrrole] | 90 | – | –
Cc1ccc([C@@H]2C[C@H]3C=C(c4c[nH]c(-c5ccc(F)c(F)c5)c4-c4ccncc4)CCN3C2)cc1C [Example 41, 2-(3,4-Difluorophenyl)-4-[(2S,8aS)-2-(3,4-dimethylphenyl)-1,2,3,5,6,8a-hexahydroindolizin-7-yl]-3-(pyridin-4-yl)-1H-pyrrole] | 91 | – | –
Fc1ccc(-c2[nH]nc(C3=C[C@@H]4C[C@@H](c5ccccc5)CN4CC3)c2-c2ccncc2)cc1 [Example 7, 5-(4-Fluorophenyl)-3-[(2S,8aS)-2-phenyl-1,2,3,5,6,8a-hexahydroindolizin-7-yl]-4-(pyridin-4-yl)pyrazole] | – | – | 81
